Like-named read-outs stand apart in the source and are kept apart here.
Experiments:
IL-4 = test: Cytokine assay: IL-4 release from PHA-L stimulated human PBMCs; format: cell-based; conditions: read-out: IL4 IC50
How it was run: (§1)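 Thawed cryopreserved human PBMCs (~250,000 cells/well) in RPMI 1640 with 10% heat-inactivated FBS were treated with compound for ~10 min at room temperature, then stimulated with 3.5 μg/mL PHA-L (final) for 48 h at 37° C. Supernatant cytokine was measured by HTRF, and IC50 was derived by four-parameter logistic fit.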

[1] = In-vitro skin permeation study (Franz cell assay); format: in vitro ADME; conditions: N=15 (3 skin donors, 5 replicates per donor)
Procedure: Topical formulations prepared containing Example 4 that were tested for skin permeability and maximum flux of Example 4 are listed in Table 13.
A higher driving force can be achieved via incorporation into the formulations of additional penetration enhancers such as oleyl alcohol.

IL-13 = test: Cytokine assay: IL-13 release from PHA-L stimulated human PBMCs; format: cell-based; conditions: read-out: IL13 IC50
How it was run: as §1

IFNγ = test: Cytokine assay: IFNγ release from PHA-L stimulated human PBMCs; format: cell-based
How it was run: as §1

[2] = biological target: PDE4B (aa 152-484, Uniprot ID Q07343) (Homo sapiens (Human), UniProt Q07343); test: PDE4 SPA assay (scintillation proximity assay); format: biochemical; conditions: read-out: PDE4B2 IC50
How it was run: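 PDE4B (aa 152-484, ~81.6 pM) preincubated ~10 min with compound, then 1 μM ³H/unlabeled cAMP added in Tris pH 7.5, 1.3 mM MgCl2, 0.004% Brij 35, ~2% DMSO; 30 min at RT. Product captured on SPA beads and counted; IC50 by four-parameter logistic fit.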

[3] = 0.01% Example 4 ointment formulation from Table 13
[4] = 0.1% Example 4 ointment formulation from Table 13
[5] = 1% Example 4 ointment formulation from Table 13

Sequence of PDE4B (aa 152-484, Uniprot ID Q07343) (Q07343 324-656): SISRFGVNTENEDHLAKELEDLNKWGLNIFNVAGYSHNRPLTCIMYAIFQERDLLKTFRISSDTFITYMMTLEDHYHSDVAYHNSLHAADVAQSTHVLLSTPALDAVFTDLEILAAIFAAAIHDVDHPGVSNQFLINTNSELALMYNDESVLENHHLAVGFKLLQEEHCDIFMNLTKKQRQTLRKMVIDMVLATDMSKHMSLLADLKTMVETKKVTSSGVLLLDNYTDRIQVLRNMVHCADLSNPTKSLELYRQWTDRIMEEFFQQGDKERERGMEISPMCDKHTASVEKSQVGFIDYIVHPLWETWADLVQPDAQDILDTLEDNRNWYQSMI

With `CCCOc1cc(-c2cncc([C@@H]3COB(O)C3)c2)ccc1OC` [Example 4, (R) 4-(5-(4-methoxy-3-propoxyphenyl)pyridin-3-yl)-1,2-oxaborolan-2-ol] the IC50 (IL-4; Homo sapiens, PBMC) was 4.11 nM, the “Mean, Cumulative Amount in 24 hours” value [1, 3] was 233.0 ng and the “Mean, Max. Flux” value [1, 3] was 20.14 ng/cm^2/hr. The “Mean, Cumulative Amount in 24 hours” value [1, 4] was 1089.9 ng, the “Mean, Max. Flux” value [1, 4] was 73.95 ng/cm^2/hr and the “Mean, Cumulative Amount in 24 hours” value [1, 5] was 3357.7 ng. The “Mean, Max. Flux” value [1, 5] was 252.28 ng/cm^2/hr, the IC50 (IL-13; Homo sapiens, PBMC) was 135 nM and the IC50 (IFNγ; Homo sapiens, PBMC) was 1.06 nM. The IC50 [2] was 0.5 nM.

`CCOc1cc(-c2cncc(C3COB(O)C3)c2C)c(F)cc1OC` (single isomer, unassigned) [Example 143, 4-(5-(5-ethoxy-2-fluoro-4-methoxyphenyl)-4-methylpyridin-3-yl)-1,2-oxaborolan-2-ol] gave an IC50 (IL-4) of 4.11 nM, an IC50 (IL-13) of 1160 nM and an IC50 (IFNγ) of 3.68 nM. It also gave an IC50 [2] of 2.71 nM.

Source: patent US11559538B2, “Substituted 1,2-oxaborolan-2-ols as PDE4 inhibitors” (Pfizer Inc., priority 2018, dated 2023)
